Reference: PMC5571211 (Scientific Reports, 2017)
pIC50: −log10 of the molar value.

Legend:
[1] = target: T1, human recombinant 5-LOX (Homo sapiens, UniProt P09917); assay: Activity assay of isolated human recombinant 5-LOX (cell-free); assay type: biochemical; settings: cell-free assays, not further specified
T1 construct: made in house; host or cells: E. coli BL21
T1 sequence (P09917 1-674): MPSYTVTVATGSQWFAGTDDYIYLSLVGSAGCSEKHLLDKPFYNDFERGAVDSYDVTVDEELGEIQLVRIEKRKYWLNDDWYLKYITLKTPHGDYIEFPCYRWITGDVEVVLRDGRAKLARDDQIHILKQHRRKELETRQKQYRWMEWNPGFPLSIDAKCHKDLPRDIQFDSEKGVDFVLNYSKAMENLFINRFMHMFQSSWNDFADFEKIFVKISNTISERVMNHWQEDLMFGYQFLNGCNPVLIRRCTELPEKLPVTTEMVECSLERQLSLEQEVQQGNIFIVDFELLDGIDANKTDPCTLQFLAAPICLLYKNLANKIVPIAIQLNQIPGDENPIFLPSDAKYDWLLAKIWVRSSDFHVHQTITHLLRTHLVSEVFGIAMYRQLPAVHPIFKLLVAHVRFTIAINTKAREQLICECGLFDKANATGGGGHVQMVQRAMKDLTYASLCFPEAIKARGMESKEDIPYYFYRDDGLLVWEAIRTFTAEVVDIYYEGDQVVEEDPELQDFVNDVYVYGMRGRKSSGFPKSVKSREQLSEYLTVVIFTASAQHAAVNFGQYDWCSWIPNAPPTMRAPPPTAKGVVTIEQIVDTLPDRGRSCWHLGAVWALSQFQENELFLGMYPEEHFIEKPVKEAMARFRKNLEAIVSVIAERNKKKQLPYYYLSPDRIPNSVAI
Method: To determine 5-LOX product formation, aliquots (0.5 µg purified 5-LOX in 1 mL PBS plus 1 mM EDTA) were pre-incubated with the test compounds or vehicle (0.1% DMSO) on ice for 15 min and then stimulated with 20 µM AA and CaCl2 (2 mM) for 10 min at 37 °C. The reaction was stopped with one volume of ice-cold methanol and 5-LOX products were analyzed by RP-HPLC as previously described[58]. Briefly, 530 µl acidified PBS and 200 ng of internal PGB1 standard were added and solid phase extraction using C18 RP-columns (100 mg, UCT, Bristol, PA, USA) was performed. After elution with methanol, samples were analyzed by RP-HPLC using a C-18 Radial-PAK column (Waters, Eschborn, Germany). Unless stated otherwise, 5-LOX products include all-trans-isomers of LTB4 and 5-HpETE as well as its corresponding alcohol 5-HETE.

[2] = target: T2, LTC4S (Homo sapiens, UniProt Q16873); settings: cited from earlier work
T2 construct: expressed in transfected cells; host or cells: HEK293 stably expressing LTC4S (geneticin selection), microsomal fraction
T2 sequence (Q16873 1-150): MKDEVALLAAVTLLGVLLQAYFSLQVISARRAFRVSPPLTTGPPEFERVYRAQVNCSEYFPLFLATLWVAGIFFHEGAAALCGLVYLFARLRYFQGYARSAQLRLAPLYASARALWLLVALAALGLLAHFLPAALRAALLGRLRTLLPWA

[3] = target: T3, 5-LOX/FLAP complex (Homo sapiens, UniProt P20292); assay: Proximity ligation assay of 5-LOX/FLAP complex assembly in monocytes; assay type: cell-based; settings: diflapolin 1 µM, MK886 0.3 µM, zileuton 3 µM
T3 construct: endogenous in cells; host or cells: freshly isolated human monocytes (immunofluorescence also in neutrophils)
T3 sequence (P20292 1-161): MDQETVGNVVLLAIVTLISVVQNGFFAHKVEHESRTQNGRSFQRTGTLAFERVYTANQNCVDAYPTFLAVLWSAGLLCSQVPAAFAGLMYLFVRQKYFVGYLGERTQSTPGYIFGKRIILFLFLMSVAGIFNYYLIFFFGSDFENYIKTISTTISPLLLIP
Method: In situ protein interaction of 5-LOX and FLAP was analyzed by proximity ligation assay as described before[37] and referring to the manufacturer’s protocol. In brief, freshly isolated monocytes were treated as described for IF above. Overnight incubations with primary antibodies were then treated for 1 h (37 °C) with oligonucleotide-labeled specific secondary antibodies (PLA probes anti-mouse MINUS and anti-rabbit PLUS). Formation of circled DNA sequences was induced by addition of ligase and oligonucleotide mixture (30 min at 37 °C). Rolling-circle-amplification of newly generated DNA template was performed (90 min, 37 °C) including hybridization of fluorescently-labeled oligonucleotides within the formed DNA strands, resulting in visualization of protein-protein interactions recognized as magenta-stained dots. Nuclear DNA staining with DAPI and image acquisition was performed as described above. Overview images were obtained using a Plan Neofluar 40/1.30 Oil (DIC III) objective (Carl Zeiss).

[4] = test system: HEK293 cells expressing 5-LOX (deficient in FLAP); assay: 5-LOX product formation in HEK293 cells expressing 5-LOX alone; assay type: cell-based; settings: HEK293 expressing 5-LOX, A23187 plus 3 µM AA
Method: HEK293 cells were cultured in monolayers (37 °C, 5% CO2) in DMEM containing FCS (10%), penicillin (100 U/mL) and streptomycin (100 µg/mL). HEK293 cell lines stably expressing 5-LOX with or without FLAP were selected using geneticin (400 µg/mL) with or without hygromycin (200 µg/mL), respectively, as previously described. Transfection of HEK293 was performed using pcDNA3.1 plasmids and lipofectamine according to the manufacturer’s instructions (Invitrogen, Darmstadt, Germany).
For analysis of 5-LOX product formation in HEK293 cells stably expressing 5-LOX with or without FLAP, cells were harvested by trypsinization, pelleted (1,200 rpm, 5 min, 4 °C) and resuspended in PGC buffer to a final concentration of 1 × 10^6 cells/mL. Aliquots were pre-incubated with test compounds or 0.1% DMSO for 15 min, respectively, and stimulated with 2.5 µM A23187 and 3 µM AA.

[5] = target: T4, mPGES-1 (Homo sapiens, UniProt O14684); assay: mPGES-1 activity in microsomes of IL-1β-stimulated A549 cells; assay type: biochemical; settings: cell-free, up to 10 µM
T4 construct: A549 cells were cultivated in DMEM medium containing FCS (2%) and IL-1β (2 ng/mL) for 72 h; endogenous in cells; host or cells: A549 cells, IL-1β-induced, microsomal fraction
T4 sequence (O14684 1-152): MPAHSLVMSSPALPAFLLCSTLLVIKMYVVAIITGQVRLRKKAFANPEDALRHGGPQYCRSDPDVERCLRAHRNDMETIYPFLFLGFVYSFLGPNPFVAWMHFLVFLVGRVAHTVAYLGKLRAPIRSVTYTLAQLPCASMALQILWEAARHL
Method: To perform the analysis of microsomal PGE2 synthase (mPGES)-1 activity, microsomal preparations of A549 cells were obtained as described before. Briefly, A549 cells were cultivated in DMEM medium containing FCS (2%) and IL-1β (2 ng/mL) for 72 h (37 °C, 5% CO2). Cells were harvested and resuspended in homogenization buffer consisting of potassium phosphate (0.1 M, pH 7.4), phenylmethanesulfonyl fluoride (1 mM), soybean trypsin inhibitor (60 µg/mL), leupeptin (1 µg/mL), glutathione (2.5 mM), and sucrose (250 mM). After freezing the cells in liquid nitrogen and sonication (3 × 20 s), a differential centrifugation at 10,000 g (10 min, 4 °C) and 174,000 × g (60 min, 4 °C) was performed and pellets were resuspended in homogenization buffer. […] After stimulation (1 min, 4 °C) with 20 µM PGH2 the reaction was terminated by addition of stop solution containing FeCl3 (40 mM), citric acid (80 mM), and 11β-PGE2 (10 µM as internal standard) and analyzed for PGE2 product formation by RP-HPLC as reported before.

Compound | pIC50 [1] | inhibition of MAPEG family member LTC4S [2] | 5-LOX/FLAP complex assembly (PLA) [3] | inhibition of 5-LOX product formation [4] | inhibition of mPGES-1 activity [5]
CC(C)c1ccc2c(c1)c(SC(C)(C)C)c(CC(C)(C)C(=O)O)n2Cc1ccc(Cl)cc1 [MK886, 3-[1-(4-chlorobenzyl)-3-t-butyl-thio-5-isopropylindol-2-yl]-2,2 - dimethylpropanoic acid] | < 5.00 | inhibit | comparable effects |  | 
Cc1cc(OCc2nc3ccccc3s2)ccc1NC(=O)Nc1ccc(Cl)c(Cl)c1 [diflapolin, N-[4-(benzothiazol-2-ylmethoxy)-2-methylphenyl]-N′-(3,4-dichlorophenyl)urea] |  |  |  | hardly impaired | failed to inhibit
